Measured values reported in patent US20110135575A1, “METALLOPROTEIN MRI CONTRAST AGENTS AND RELATED METHODS” (Massachusetts Institute of Technology, priority 2007, published 2011).

B1: wild type BM3: wild type cytochrome P450-BM3 from Bacillus megaterium, provided by Frances Arnold's laboratory (protein, UniProt P14779 1-1049, looked up)
Bifunctional cytochrome …: MTIKEMPQPKTFGELKNLPLLNTDKPVQALMKIADELGEIFKFEAPGRVTRYLSSQRLIKEACDESRFDKNLSQALKFVRDFAGDGLFTSWTHEKNWKKAHNILLPSFSQQAMKGYHAMMVDIAVQLVQKWERLNADEHIEVPEDMTRLTLDTIGLCGFNYRFNSFYRDQPHPFITSMVRALDEAMNKLQRANPDDPAYDENKRQFQEDIKVMNDLVDKIIADRKASGEQSDDLLTHMLNGKDPETGEPLDDENIRYQIITFLIAGHETTSGLLSFALYFLVKNPHVLQKAAEEAARVLVDPVPSYKQVKQLKYVGMVLNEALRLWPTAPAFSLYAKEDTVLGGEYPLEKGDELMVLIPQLHRDKTIWGDDVEEFRPERFENPSAIPQHAFKPFGNGQRACIGQQFALHEATLVLGMMLKHFDFEDHTNYELDIKETLTLKPEGFVVKAKSKKIPLGGIPSPSTEQSAKKVRKKAENAHNTPLLVLYGSNMGTAEGTARDLADIAMSKGFAPQVATLDSHAGNLPREGAVLIVTASYNGHPPDNAKQFVDWLDQASADEVKGVRYSVFGCGDKNWATTYQKVPAFIDETLAAKGAENIADRGEADASDDFEGTYEEWREHMWSDVAAYFNLDIENSEDNKSTLSLQFVDSAADMPLAKMHGAFSTNVVASKELQQPGSARSTRHLEIELPKEASYQEGDHLGVIPRNYEGIVNRVTARFGLDASQQIRLEAEEEKLAHLPLAKTVSVEELLQYVELQDPVTRTQLRAMAAKTVCPPHKVELEALLEKQAYKEQVLAKRLTMLELLEKYPACEMKFSEFIALLPSIRPRYYSISSSPRVDEKQASITVSVVSGEAWSGYGEYKGIASNYLAELQEGDTITCFISTPQSEFTLPKDPETPLIMVGPGTGVAPFRGFVQARKQLKEQGQSLGEAHLYFGCRSPHEDYLYQEELENAQSEGIITLHTAFSRMPNQPKTYVQHVMEQDGKKLIELLDQGAHFYICGDGSQMAPAVEATLMKSYADVHQVSEADARLWLQQLEEKGRYAKDVWAG

Assays:
BM3 protein = BM3 protein (Priestia megaterium, UniProt P14779); assay: biochemical
From the text: In another example, a spectroscopic assay based on analyte-induced absorbance shifts was employed to estimate binding affinities and ligand selectivity of the mutant proteins in the above Examples. […] This method allowed both an estimation of an analyte's dissociation constant and a determination of selectivity.

[1] = T1 relaxivity / T1-weighted images in the presence of melatonin; assay type: biochemical; settings: Example 3, FIGS. 8-9
[2] = T1 relaxivity by MRI in the presence of dopamine; settings: Example 3, FIGS. 8-9
From the text: To determine the extent of that the interaction between exchanging water molecules at the axial site and the heme iron atom promotes T1 relaxation in aqueous solutions, a spin echo MRI pulse sequence was used to measure the proton relaxation rate as a function of protein concentration in phosphate buffered saline solution (PBS); the slope of this relationship (T1 relaxivity, or r1) provided a standard measure of the strength of a contrast agent.
Samples (60-100 microliters) were arrayed into microtiter plates and placed in a 40-cm-bore Bruker (Billerica, Mass.) Avance 4.7 T MRI scanner, equipped with a 10 cm inner diameter birdcage resonator radiofrequency coil and 26 G/cm triple axis gradients. Unused wells of the microtiter plates were filled with phosphate buffered saline, and imaging was performed on a 2-mm slice through the sample. A T1-weighted spin echo pulse sequence was used; echo time (TE) was 10 ms, and repetition times (TR) ranged from 77 ms to 5 s. Data matrices of 512×128 points were acquired and zero-filled to 1024×512 points, where the second dimension corresponds to the phase encoding direction. Images were reconstructed and analyzed using custom routines running in Matlab. Relaxation rates and relaxivities reported here were calculated by exponential fitting to the image data.

Method for PC12 cells: PC12 cells were grown in suspension in F-12K medium supplemented with 15% horse serum and 2.5% fetal bovine serum (ATCC, Manassas, Va.). In preparation for DA release experiments, 50 mL cell cultures were incubated for one hour in medium supplemented with 1 mM DA and 1 mM ascorbic acid, pelleted and washed twice with Locke's buffer (154 mM NaCl, 5.6 mM KCl, 3.6 mM NaHCO3, 2.3 mM CaCl2, 5.6 mM D-glucose, and 5 mM HEPES, pH 7.4). Washed PC12 cell pellets were resuspended in 200 microliters of Locke's buffer, with or without 32 micromolar BM3h-B7 sensor and containing either 5.6 or 59.6 mM K^+ (the low K^+ condition was osmotically balanced with Na^+). After 30-60 minutes incubation at room temperature, cells were pelleted and the supernatant was imaged in an MRI scanner as described above.

Molecule	DA concentration by ELISA, stimulated cells (PC12 cells; K+-stimulated PC12 cells) [µM]	DA concentration by ELISA, control cells (PC12 cells; Na+ control PC12 cells) [µM]	Kd (BM3 protein) [µM]	T1 relaxivity response to melatonin [1]	relative T1 relaxivity response to DA versus 5-HT [2]
NCCc1ccc(O)c(O)c1 [dopamine]	54 ± 9	13 ± 2	~1000		
NCCc1c[nH]c2ccc(O)cc12 [serotonin]			~1000		
B1				minimal response	greater response to DA
